Source: paper PMC9138102, “The Role of ZIP9 and Androgen Receptor in the Establishment of Tight Junctions between Adult Rat Sertoli Cells” (Biology, 2022)

Tests used:
[1] = test system: AR; test: AR nuclear translocation in PASC1 cells (immunofluorescence); assay type: cell-based, rat; conditions: 2 h
Description: PASC1 cells were plated at a density of 3.0 × 10^4 on 24-well plates (1 mL/well) and incubated 48 h at 37 °C and 5% CO2 until a confluence of roughly 80% was reached. Cells were rinsed with DPBS and fixed with 100% ice-cold methanol (Roth, Karlsruhe, Germany) on ice for 10 min directly or after stimulation with vehicle, 10 nM testosterone, or 1 µM P1 for 24 h. Cells were then washed with DPBS three times for 5 min, and then incubated in blocking solution (PBS with 3% BSA and 0.3% Triton X-100, both from Sigma-Aldrich) for 1 h at room temperature. The blocking solution was replaced by fresh blocking solution containing the primary antibodies for detection of either AR, p-Erk1/2, p-CREB/p-ATF-1, claudin-1 (Cldn-1), or zonula occludens-1 (ZO-1) (Supplementary Table S1) and incubated overnight at 4 °C. […] After washing 3 times with DPBS, images were obtained using an inverse Olympus IX81 microscope equipped with a fluorescence system. A total of 30 cells from 3 independent experiments (30 × 3) localized closest to the diagonals of the square optical field were selected and the manually surrounded green fluorescence was quantified by ImageJ (available at http://rsbweb.nih.gov/ij/, last accessed 28 February 2022) following the protocol of the software provider.

[2] = test system: PASC1 cells; test: Transepithelial electrical resistance (TER) across PASC1 cell layers; assay type: cell-based, rat; conditions: 10 nM testosterone or 10 µM IAPG, 0, 24, 48, 72 h, n = 6, means ± SEM
Description: TER measurements were performed as described. Briefly, 6.0 × 10^4 cells/cm^2 of androgen receptor (AR)- or ZIP9-knockdown PASC1 or non-treated PASC1 cells were seeded on 0.4 μm inserts of 24-well plates (Greiner bio one, Frickenhausen, Germany) and cultured for 48 h until they reached confluence. […] As testosterone was dissolved in ethanol (vehicle), the same volume of ethanol was added to the peptide-treated cells and untreated controls. TER measurements were made with a Millicell ERS-2 epithelial Volt-Ohm meter (Merck Millipore, Darmstadt, Germany). ΩXcm^2 was calculated according to the protocol of the manufacturer by setting the resistance of cell-free inserts to zero.
(§1) For silencing ZIP9 or AR expression, PASC1 cells were treated with commercially available siRNA directed against the expression of ZIP9 or the AR by following the manufacturer’s protocol (Silencer ® Select, siRNA Invitrogen, Darmstadt, Germany). The following oligonucleotides were used: 5′ […]tt3′ and 5′ […]ta 3′ (ZIP9-siRNA for ZIP9 silencing) and 5′[…]tt3′ plus 5′ […]ag 3′ (AR-siRNA for AR silencing). Negative control siRNA (nc-siRNA) was provided in the siRNA kit from the same manufacturer. After incubation of PASC1 for 48 h with ZIP9-siRNA, AR-siRNA, or nc-siRNA, preparation of samples for qRT-PCR, TER measurement, or immunofluorescence experiments were carried out as described above.

[3] = test system: Cldn-1; test: Cldn-1 expression in PASC1 cells, immunofluorescence; assay type: cell-based, rat; conditions: 10 nM testosterone or 10 µM IAPG, 24 h, n = 3 × 25
Description: (§2) PASC1 cells were plated at a density of 3.0 × 10^4 on 24-well plates (1 mL/well) and incubated 48 h at 37 °C and 5% CO2 until a confluence of roughly 80% was reached. Cells were rinsed with DPBS and fixed with 100% ice-cold methanol (Roth, Karlsruhe, Germany) on ice for 10 min directly or after stimulation with vehicle, 10 nM testosterone, or 1 µM P1 for 24 h. Cells were then washed with DPBS three times for 5 min, and then incubated in blocking solution (PBS with 3% BSA and 0.3% Triton X-100, both from Sigma-Aldrich) for 1 h at room temperature. The blocking solution was replaced by fresh blocking solution containing the primary antibodies for detection of either AR, p-Erk1/2, p-CREB/p-ATF-1, claudin-1 (Cldn-1), or zonula occludens-1 (ZO-1) (Supplementary Table S1) and incubated overnight at 4 °C. Cells were washed 3 times with DPBS for 3 min each at RT on an orbital shaker, freshly made blocking solution with the appropriate Alexafluor 488-conjugated donkey anti-rabbit secondary antibody was added for 1 h at room temperature on an orbital shaker. After washing 3 times with DPBS, images were obtained using an inverse Olympus IX81 microscope equipped with a fluorescence system. […] The data obtained were analyzed by GraphPad Prism5 (GraphPad Software, Inc., La Jolla, CA, USA).
as §1

[4] = exogenous testosterone; cited from earlier work
[5] = test system: ZO-1; test: ZO-1 expression in PASC1 cells, immunofluorescence; assay type: cell-based, rat; conditions: 10 nM testosterone or 10 µM IAPG, 24 h, n = 3 × 25
Description: as §2, with “Cells were rinsed with DPBS and fixed with 100% ice-cold methanol (Roth, Karlsruhe, Germany) on ice for 10 min directly or after stimulation with vehicle, 10 nM testosterone, or 1 µM P1 for 24 h.” left out
as §1

[6] = test system: Sertoli cell line 93RS2; conditions: 93RS2 cells; ZIP9-mediated; cited from earlier work
Text: The testosterone receptor responsible for the stimulation of the expression of TJ proteins and the formation of the BTB, however, remains to be defined. The classical androgen receptor (AR) has for decades been undisputed as the mediator of all testosterone effects, including the stimulation of TJ formation at the BTB; however, recent investigations have challenged this assumption. ZIP9, a rather recently identified membrane-bound androgen receptor and zinc transporter from the family of ZRT/IRT-like proteins (ZRT = zinc-regulated transporter; IRT = iron-regulated transporter) ...

[7] = test system: CREB/ATF-1; test: p-CREB/p-ATF-1 immunofluorescence in PASC1 cells after AR or ZIP9 silencing; assay type: cell-based, rat; conditions: 10 nM testosterone or 10 µM IAPG, 24 h, n = 3 × 25
[8] = test system: Erk1/2; test: phospho-Erk1/2 immunofluorescence in PASC1 cells after AR or ZIP9 silencing; assay type: cell-based, rat; conditions: 10 nM testosterone or 10 µM IAPG, 24 h
Description: as §2, §1

Row | Compound | TJ formation (TER) ([2]; AR-siRNA) | TJ formation (TER) ([2]; ZIP9-siRNA) | TJ formation (TER) ([2]; nc-siRNA) | Cldn-1 expression ([3]; AR-siRNA) | Cldn-1 expression ([3]; ZIP9-siRNA) | Cldn-1 expression ([3]; nc-siRNA) | Stimulated ZO-1 fluorescence, nc-siRNA versus AR-siRNA [5] | ZO-1 expression (fluorescence signal) ([5]; ZIP9-siRNA) | ZO-1 expression (fluorescence signal) ([5]; nc-siRNA) | CREB/ATF-1 phosphorylation ([7]; AR-siRNA) | CREB/ATF-1 phosphorylation ([7]; ZIP9-siRNA) | CREB/ATF-1 phosphorylation ([7]; nc-siRNA) | Stimulatory effect on Erk1/2 phosphorylation, nc-siRNA versus AR-siRNA [8] | Erk1/2 phosphorylation (green fluorescence) ([8]; AR-siRNA, ** p ≤ 0.01) | Erk1/2 phosphorylation (green fluorescence) ([8]; ZIP9-siRNA, ns) | Erk1/2 phosphorylation (green fluorescence) ([8]; nc-siRNA, ** p ≤ 0.01) | also measured
1 | C[C@]12CC[C@H]3[C@@H](CCC4=CC(=O)CC[C@@]43C)[C@@H]1CC[C@@H]2O [testosterone] | had the same effect | failed to stimulate TJ formation | tighter TJ than the control already after 1 day of treatment, as demonstrated by increased TER | stimulated the expression of Cldn-1 | failed to do so | stimulated the expression of Cldn-1 | not significantly different | The ZO-1 fluorescence was unchanged by the ligands | the ZO-1-corresponding signal was significantly intensified | to the same extent as cells treated with nc-siRNA | failed to stimulate phosphorylation of CREB/ATF-1 | stimulated CREB/ATF-1 phosphorylation | not significantly different from each other | responded with augmented phosphorylation of Erk1/2 | entirely prevented stimulation of Erk1/2 phosphorylation | low (Figure 6A) relative to the signal obtained in cells exposed to testosterone | AR localization / translocation into the nucleus ([1]; testosterone 10 nM): all green fluorescence was found within the nuclei; Effect on hypothalamic–pituitary–gonadal axis hormones [4]: prevents GnRH release from the hypothalamus and FSH and LH from the pituitary, leading to the impairment of testosterone production in Leydig cells; Effect on male fertility [4]: unfavorably affects male fertility; Germ cell production [4]: germ cell production under these conditions is halted; Severe side effects [4]: polycythemia, cardiac hypertrophy, and myocardial infarction; Expression of claudin-1 and claudin-5 [6]: increased expression of claudin-1 and claudin-5; TJ formation [6]: enhanced TJ formation
2 | IAPG | had the same effect | failed to stimulate TJ formation | tighter TJ than the control already after 1 day of treatment, as demonstrated by increased TER | stimulated the expression of Cldn-1 | failed to do so | stimulated the expression of Cldn-1 | not significantly different | The ZO-1 fluorescence was unchanged by the ligands | the ZO-1-corresponding signal was significantly intensified | to the same extent as cells treated with nc-siRNA | failed to stimulate phosphorylation of CREB/ATF-1 | stimulated CREB/ATF-1 phosphorylation | not significantly different from each other | responded with augmented phosphorylation of Erk1/2 | entirely prevented stimulation of Erk1/2 phosphorylation | low (Figure 6A) relative to the signal obtained in cells exposed to testosterone (Figure 6B) or IAPG | AR localization / translocation into the nucleus ([1]; IAPG 10 µM): A translocation of the AR from the cytosol into the nucleus did not occur
